Laboratory results as given in patent US7157083B2, “Compositions and methods for treating retroviral infections” (priority 1998, dated 2007).

System: clinical isolate ROJO (low passage HIV-1) in human PBMCs
Test: Study 1 PBMC assay: reverse transcriptase activity after ROJO infection (Treatments A, B, C)
Assay type: cell-based
Protocol: Percent virus control (% VC) in the following tables is the mean RT activity (cpm) as a percentage of a virus control. Percent cell control (% CC) is the mean XTT absorbance as a percentage of a cell control.
Peripheral blood monocular cells (PBMCs) are obtained from normal hepatitis and HIV-1 negative donors by ficoll hypaque gradient separation. Briefly, anti-coagulated blood is diluted 1:1 with Dulbecco's phosphate buffered saline without Ca^++ and Mg^++ (PBS) and layered over 14 mL of Lymphocyte separation media in a 50 ml centrifuge tube. Tubes are then centrifuged for 30 minutes at 600× g. Banded PBLs are gently aspirated from the resulting interface and subsequently washed 2× with PBS by low speed centrifugation. The mononuclear cells are counted, viability determined by Trypan Blue dye exclusion and resuspended in RPM1640 medium supplemented with 15% FBS (heat inactivated), 2 mM L-glutamine, 100 U/mL penicillin, 100 μg/mL streptomycin, and 10 μg/mL gentamycin with 2 μg/mL phytohemagluttin (PHA) at 1×10^6 cells/mL. The cells are cultured for 48 to 72 h at 37° C., 5% CO2 Following incubation, cells are collected by centrifugation, washed and resuspended in RPMI 1640 supplemented with 15% FBS (heat inactivated), 2 Mm L-glutamine, 100 U/mL penicillin, 100 μg/mL streptomycin, and 10 μg/mL gentamycin with 20 U/mL recombinant IL-2 (R & D Systems, Minneapolis, Minn.). IL-2 is included in the culture medium to maintain the cell division initiated by the PHA mitogenic stimulation. The cultures are then maintained until use by ½ culture volume change with fresh IL-2 containing medium every 3 days.
Human peripheral blood mononuclear cells from a minimum of 2 donors, that have been blasted with PHA and IL-2, are counted, viability determined by Trypan Blue dye exclusion and mixed in equal ratios. Pooled donors are used to minimize the variability observed between individual donors which results from quantitative and qualitative differences in HIV infection and overall response to the PHA and IL-2 of primary lymphocyte populations. The cells are resuspended at 1×10^6 cells/mL in RPMI 1640 without phenol red supplemented with 15% Fetal Bovine Serum (heat inactivated), 2 mM L-glutamine, 100 U/mL penicillin, 100 μg/mL streptomycin, 10 μg/mL gentamycin and IL-2 (20 U/mL, R&D Systems, Minneapolis, Minn.). Fifty microliters of cells are then distributed to the inner 60 wells of a 96 well round bottom Microtiter culture plate in a standard format developed by the Infectious Disease Research department of Southern Research Institute. Each plate contains cell control wells (cells only), virus control wells (cell plus virus), and experimental wells (drug plus cells plus virus).
Using an in-house computer program, IC50 (50% inhibition of virus replication), TC50 (50% reduction in cell viability) and a therapeutic index (TI, […]) were determined. AZT was used as a relevant positive control compound for the individual assays.
This study compares the ability of hyaluronidase to AZT to lower viral replication as measured by reverse transcriptase levels. RT was measured on days 7, 14, and 21. Three different treatment regimens were used in the comparative study (Treatments A, B and C).
Treatment A. Normal mixed PHA blasted human PBMCs (5×10e4/well) were pretreated with drug every 48 hours for 3 doses. On day 6 of pretreatment, cells were infected with clinical isolate ROJO. 48 hours post infection, treatment with drugs continued for an additional 3 treatments. Samples for assay were collected on D7 (day 7), 14, 21, post infection, frozen and later analyzed for reverse transcriptase.
Treatment B. Normal mixed PHA blasted human PBMCs (as above) were plated in 96 wells and allowed to incubate for 48 hours (cells were set at same time as treatment A from same pool). Drug pretreatment started on day 2 and was repeated on day 4. On day 6, cell were infected as in treatment A, with concurrent addition of drug for a total of 3 treatments. […]

Substance: Hyaluronidase
- RT activity % VC (Treatment A, 0.00165 units/mL, Day 7): 131.1%
- RT activity % VC (Treatment A, 0.00165 units/mL, Day 14): 21.6%
- RT activity % VC (Treatment A, 0.00165 units/mL, Day 21): 24.4%
- RT activity % VC (Treatment A, 0.00515 units/mL, Day 7): 49.5%
- RT activity % VC (Treatment A, 0.00515 units/mL, Day 14): 14.9%
- RT activity % VC (Treatment A, 0.00515 units/mL, Day 21): 5.1%
- RT activity % VC (Treatment A, 0.01611 units/mL, Day 7): 1.1%
- RT activity % VC (Treatment A, 0.01611 units/mL, Day 14): 0.1%
- RT activity % VC (Treatment A, 0.01611 units/mL, Day 21): 0.6%
- RT activity % VC (Treatment A, 0.05033 units/mL, Day 7): 1.0%
- RT activity % VC (Treatment A, 0.05033 units/mL, Day 14): 0.4%
- RT activity % VC (Treatment A, 0.05033 units/mL, Day 21): 0.9%
- RT activity % VC (Treatment A, 0.15729 units/mL, Day 7): 0.7%
- RT activity % VC (Treatment A, 0.15729 units/mL, Day 14): 0.2%
- RT activity % VC (Treatment A, 0.15729 units/mL, Day 21): 0.7%
- RT activity % VC (Treatment A, 0.49152 units/mL, Day 7): 1.0%
- RT activity % VC (Treatment A, 0.49152 units/mL, Day 14): 0.3%
- RT activity % VC (Treatment A, 0.49152 units/mL, Day 21): 0.4%
- RT activity % VC (Treatment A, 1.536 units/mL, Day 7): 1.6%
- RT activity % VC (Treatment A, 1.536 units/mL, Day 14): 0.2%
- RT activity % VC (Treatment A, 1.536 units/mL, Day 21): 1.2%
- RT activity % VC (Treatment A, 4.8 units/mL, Day 7): 1.1%
- RT activity % VC (Treatment A, 4.8 units/mL, Day 14): 0.3%
- RT activity % VC (Treatment A, 4.8 units/mL, Day 21): 1.0%
- RT activity % VC (Treatment A, 15 units/mL, Day 7): 1.1%
- RT activity % VC (Treatment A, 15 units/mL, Day 14): 0.7%
- RT activity % VC (Treatment A, 15 units/mL, Day 21): 1.1%
- RT activity % VC (Treatment B, 0.00165 units/mL, Day 7): 47.1%
- RT activity % VC (Treatment B, 0.00165 units/mL, Day 14): 10.5%
- RT activity % VC (Treatment B, 0.00165 units/mL, Day 21): 5.1%
- RT activity % VC (Treatment B, 0.00515 units/mL, Day 7): 6.0%
- RT activity % VC (Treatment B, 0.00515 units/mL, Day 14): 1.0%
- RT activity % VC (Treatment B, 0.00515 units/mL, Day 21): 0.8%
- RT activity % VC (Treatment B, 0.01611 units/mL, Day 7): 3.6%
- RT activity % VC (Treatment B, 0.01611 units/mL, Day 14): 0.6%
- RT activity % VC (Treatment B, 0.01611 units/mL, Day 21): 0.2%
- RT activity % VC (Treatment B, 0.05033 units/mL, Day 7): 3.0%
- RT activity % VC (Treatment B, 0.05033 units/mL, Day 14): 0.4%
- RT activity % VC (Treatment B, 0.05033 units/mL, Day 21): 0.9%
- RT activity % VC (Treatment B, 0.15729 units/mL, Day 7): 2.8%
- RT activity % VC (Treatment B, 0.15729 units/mL, Day 14): 0.4%
- RT activity % VC (Treatment B, 0.15729 units/mL, Day 21): 0.5%
- RT activity % VC (Treatment B, 0.49152 units/mL, Day 7): 4.9%
- RT activity % VC (Treatment B, 0.49152 units/mL, Day 14): 0.4%
- RT activity % VC (Treatment B, 0.49152 units/mL, Day 21): 0.3%
- RT activity % VC (Treatment B, 1.536 units/mL, Day 7): 4.1%
- RT activity % VC (Treatment B, 1.536 units/mL, Day 14): 0.2%
- RT activity % VC (Treatment B, 1.536 units/mL, Day 21): 0.4%
- RT activity % VC (Treatment B, 4.8 units/mL, Day 7): 1.9%
- RT activity % VC (Treatment B, 4.8 units/mL, Day 14): 0.5%
- RT activity % VC (Treatment B, 4.8 units/mL, Day 21): 1.2%
- RT activity % VC (Treatment B, 15 units/mL, Day 7): 3.4%
- RT activity % VC (Treatment B, 15 units/mL, Day 14): 0.5%
- RT activity % VC (Treatment B, 15 units/mL, Day 21): 0.7%
- RT activity % VC (Treatment C, 0.00165 units/mL, Day 7): 104.0%
- RT activity % VC (Treatment C, 0.00165 units/mL, Day 14): 42.4%
- RT activity % VC (Treatment C, 0.00165 units/mL, Day 21): 23.5%
- RT activity % VC (Treatment C, 0.00515 units/mL, Day 7): 100.4%
- RT activity % VC (Treatment C, 0.00515 units/mL, Day 14): 26.0%
- RT activity % VC (Treatment C, 0.00515 units/mL, Day 21): 13.2%
- RT activity % VC (Treatment C, 0.01611 units/mL, Day 7): 3.9%
- RT activity % VC (Treatment C, 0.01611 units/mL, Day 14): 1.8%
- RT activity % VC (Treatment C, 0.01611 units/mL, Day 21): 1.0%
- RT activity % VC (Treatment C, 0.05033 units/mL, Day 7): 3.4%
- RT activity % VC (Treatment C, 0.05033 units/mL, Day 14): 0.4%
- RT activity % VC (Treatment C, 0.05033 units/mL, Day 21): 0.6%
- RT activity % VC (Treatment C, 0.15729 units/mL, Day 7): 3.0%
- RT activity % VC (Treatment C, 0.15729 units/mL, Day 14): 0.2%
- RT activity % VC (Treatment C, 0.15729 units/mL, Day 21): 0.8%
- RT activity % VC (Treatment C, 0.49152 units/mL, Day 7): 4.1%
- RT activity % VC (Treatment C, 0.49152 units/mL, Day 14): 0.2%
- RT activity % VC (Treatment C, 0.49152 units/mL, Day 21): 0.4%
- RT activity % VC (Treatment C, 1.536 units/mL, Day 7): 2.7%
- RT activity % VC (Treatment C, 1.536 units/mL, Day 14): 0.4%
- RT activity % VC (Treatment C, 1.536 units/mL, Day 21): 0.6%
- RT activity % VC (Treatment C, 4.8 units/mL, Day 7): 4.6%
- RT activity % VC (Treatment C, 4.8 units/mL, Day 14): 0.4%
- RT activity % VC (Treatment C, 4.8 units/mL, Day 21): 0.7%
- RT activity % VC (Treatment C, 15 units/mL, Day 7): 3.2%
- RT activity % VC (Treatment C, 15 units/mL, Day 14): 0.6%
- RT activity % VC (Treatment C, 15 units/mL, Day 21): 0.7%
- reduction in viral replication as measured by reverse transcriptase, compared to AZT (Treatments A, B and C, days 7, 14, and 21): greater reduction in viral replication
